Experiments:
calreticulin = assay: Cell surface calreticulin by flow cytometry; type: cell-based; conditions: 6.25 μM Compound A, 1 μM FUdR, 500 nmol/L doxorubicin; 4 hours
Description: Experimental Overview. Tumor cells undergoing immunogenic cell death (ICD) emit damage associated molecular patterns (DAMPs). ICD is a sub-class of cell death that results in the potent stimulation of the innate immune system and subsequently the stimulation of adaptive immune responses. The cell surface expression of calreticulin during cell death is one of several established DAMPs characteristic of immunogenic cell death. Calreticulin translocates from the endoplasmic reticulin to the cell membrane where it functions as a potent “eat me” signal for macrophages and dictates tumor antigen transfer and therefore the immunogenicity of cancer cell death. PANC1 pancreatic carcinoma cells were treated with vehicle control (DMSO), 6.25 μM Compound A, 1 μM FUdR, or the combination of 6.25 μM Compound A and 1 μM FUdR for 4 hours and the concentration of cell surface calreticulin was deteremined by flow cytometry.
Cell Line Model Selection and Preparation. The PANC1 pancreatic cancer cell line was purchased from ATCC. Cells were cultured and expanded in humidified incubators at 5% CO2 until sufficient cells were available.
Drug Preparation and Treatments. All drugs/compounds were prepared freshly in cell culture media from 50 mM frozen stocks prior to treatment. Cells were seeded in 6-well plates and permitted to adhere overnight. Media was removed and replaced with media containing 6.25 μM Compound A, 1 μM FUdR or a combination of 6.25 μM Compound A and 1 μM FUdR. […]
Detection of Cell Surface Calreticulin. Cell surface calreticulin was quantified by flow cytometry. […] Cells were counted and 300,000 cells were washed in staining buffer and incubated in Calreticulin (D3E6) XP Alexa Fluor 488 Conjugate antibody (Cell Signaling) or IgG antibody (negative control antibody) on ice for 40 minutes. […] The IgG isotype control stained sample was used to correctly identify the positively stained population in which median fluorescence intensity was determined. Median fluorescence intensity values were exported and analyzed in Microsoft Excel and GraphPad Prism 6. […]

PD-L1 = assay: Total PD-L1 expression by Western blotting in cancer cell lines; type: cell-based; conditions: 12.5 μM Compound A
Method: Experimental Overview. Programmed death-ligand 1 (PD-L1) is a type 1 transmembrane protein that plays a major role in suppressing the innate and adaptive arms of the immune system. The PD-1/PD-L1 pathway represents an adaptive immune resistance mechanism exerted by tumor cells in response to endogenous immune anti-tumor activity and is a well-established therapeutic target in cancer therapy. Cancer cells were treated with vehicle control (DMSO), the fluoropyrimidine FUdR (also known as floxuridine) alone, Compound A alone, or the combination of Compound A and FUdR, and the expression level of the immune checkpoint protein PD-L1 was measured by both Western blotting and flow cytometry and compared to control. Cell lines assayed for total PD-L1 protein expression by Western blotting included, pancreatic cancer, PANC-1; non-small cell lung cancer, H460; colorectal cancer, HCT116; breast cancer, MCF-7; melanoma, MeWo. Two cell lines were advanced to analyze cell surface PD-L1 by flow cytometry, MCF-7 and PANC-1.
Western Blotting. Cells were cultured in the presence of the indicated concentrations of Compound A, 5-fluorodeoxyuridine (FUdR), or a combination of both in a P100 cell culture dishes for 12 or 24 hours. At the conclusion of specified time-points, cells were scraped in PBS containing NaF and Na3VO4, pelleted by centrifugation, washed with PBS and pelleted again. […] The concentration of the isolated supernatant was determined by BCA assay on a CLARIOstar microplate reader and the required volume of whole-cell lysate was denatured by the addition of Sample Buffer, Laemmli 2×Concentrate followed by boiling at 95° C. for 5 min. […] Images were analyzed in ImageJ to obtain PD-L1 relative density values which were normalised to relative density of loading control. Once the primary image acquisition was complete, the pre-cast gels and corresponding immunoblots were further imaged for total protein as a quality control measure following a UV-induced 1-minute reaction to produce fluorescence. […]

C[C@@H](NS(=O)(=O)CCCCCN1CC(=O)NC1=O)c1ccc(F)c(OCC2CC2)c1 [Compound A]
increase in cell surface expression of calreticulin compared to control, PANC1 cells (calreticulin): no significant difference
total PD-L1 expression, all cell lines (PD-L1; MeWo, MCF-7, HCT116, H460, PANC-1, 12 and 24 hours): unchanged

O=c1[nH]c(=O)n([C@H]2C[C@H](O)[C@@H](CO)O2)cc1F [FUdR]
increase in cell surface expression of calreticulin compared to control, PANC1 cells (calreticulin): no significant difference
total PD-L1 expression in HCT116, MCF-7, PANC-1 and Mewo cell lines (PD-L1; 1 μM FUdR, 12 and 24 hours, compared to control): significant increase
total PD-L1 expression in H460 cell line (PD-L1; PD-L1 high at baseline, 1 μM FUdR): did not induce
